Measurements: patent US6369101B1, “Therapeutic method to treat herpes virus infection” (Regents of the University of Minnesota, priority 1999, dated 2002)
In brackets after ≈: the same amount, converted by molar mass. Structures can show the parent of a compound that is named as a salt. Where two headings read alike, the source gives them in different places.

How the values were obtained:
HSV-1 strain E-377 = experiment: CPE inhibition assay, HSV-1 E377 in human foreskin fibroblast cells; as to Qualitative CPE at 2.0 ml dose HSV-1 E377: key: +++ = Complete cytopathic effect; ++ = Moderate cytopathic effect; + = Minimum cytopathic effect; − = No cytopathic effect; type: cell-based, herpes simplex virus type 1; details: for Qualitative CPE at 2.0 ml dose HSV-1 E377: solution conc. per compound (ng/ml) (Acyclovir 250); for EC50: Human alphaherpesvirus 1, HFF, read-out: EC50 HSV-1 E377
Procedure: (§1) Stock solutions of the compounds used for the testing of antiviral activity against HSV-1 and HSV-2 were prepared in distilled water, filtered through 0.2 μm filter (Acrodisco®, Gelman Sciences, USA) and stored at room temperature until used.
(§2) Human laryngeal epithelial carcinoma cells (HEp-2, ATCC, Rockville, Md.) were used for testing of antiviral compounds by cytopathic effect (CPE) inhibition and plaque reduction assay. Primary human foreskin fibroblast cells (HFF) obtained from Dr. E. R. Kern (Department of Pediatrics, University of Alabama Medical School, 309 Bevill Biomedical Research Building, 845 19th Street South, Birmingham, Ala., 35294-2170), were used for cytopathic effect (CPE) inhibition assay. HEp-2, African green monkey kidney cells (Vero, ATCC), HFF and primary rabbit kidney cells were used to determine the cytotoxic effect of compounds of formula I. These cells were propagated in Dulbeco's modified Eagle's medium (DMEM) (Sigma, USA) supplemented with 10% inactivated fetal calf serum (FCS), 25 mM HEPES, 0.2% sodium bicarbonate and 1% penicillin/-streptomycin at 37° C. in the presence of 5% CO2.
(§3) The antiviral activity of the test compounds was determined against HSV-1 strain F, HSV-2 strain G (ATCC), HSV-1 strain E-377 and HSV-2 strain MS (Dr. E. R. Kern, see above), CMV strain AD 169 (NIH), HCMV (NIH), MCMV (NIH), and VZV strain Ellen (NIH). Highly infective virus stocks of HSV-1 and HSV-2 were prepared by infecting a confluent monolayer of HEp-2 (ATCC) or HFF in 150 cm^2 plastic tissue culture flasks (Falcon, USA) at a multiplicity of infection of 0.5 in DMEM supplemented with 10% inactivated fetal calf serum and 1% penicillin/streptomycin at 37° C. in the presence of 5% CO2. The infected cells were disrupted through three freeze/thaw cycles, and viruses were clarified from large cell debris by low speed centrifugation at 3000 rpm for 10 minutes. The virus suspension was separated, aliquoted and stored at −80° C. until assayed or used for animal infection. The stock HSV-1 (E377) and HSV-2 (MS strain) contained 3.5×10^8 and 1.1×10^7 pfu/ml respectively.
(§4) Low passage HFF cells were seeded into 96-well tissue culture plates 24 hours prior to use at a cell concentration of 2.5×10^4 cells per ml in 0.2 ml of DMEM supplemented with 10% fetal calf serum. After 24 hours of incubation at 37° C. in the presence of 5% CO2, medium was removed and the test compounds were diluted two-fold in DMEM in the 96-well tissue culture plate containing monolayer. […] For both HSV-1 and HSV-2 assays, the virus concentration utilized was 1000 pfu/ml and for HCMV, MCMV, and VZV assay 2500 pfu/ml were used. The plates were then incubated at 37° C. in the presence of 5% CO2 for two to three days for HSV-1 and HSV-2, 10 days for VZV and 14 days for HCMV and MCMV. The virus induced cytopathic effect (CPE) was monitored microscopically every day. CPE of HSV-1 was recognized by cell rounding and clumping, while HSV-2 formed large syncytia along with rounding and clumping of cells. […] EC50s were estimated from graphical plots of percent CPE against the concentration of the test compounds. The EC50s for each compound are the mean of EC50s for three or more independent experiments. After three days of incubation period, media was aspirated and the cells stained with a 0.1% crystal violet solution for 30 minutes. The stain was then removed and the plates were rinsed with tap water, air dried and retained.

HSV-2 strain MS = experiment: CPE inhibition assay, HSV-2 MS in human foreskin fibroblast cells; as to Qualitative CPE at 2.0 ml dose HSV-2 MS: key: +++ = Complete cytopathic effect; ++ = Moderate cytopathic effect; + = Minimum cytopathic effect; − = No cytopathic effect; type: cell-based, herpes simplex virus type 2; details: for Qualitative CPE at 2.0 ml dose HSV-2 MS: HFF cells, solution conc. per compound (ng/ml) (Acyclovir 250); for EC50: Human alphaherpesvirus 2, HFF, read-out: EC50 HSV-2 MS
Procedure: as §1, §2, §3, §4

[1] = test system: Primary human foreskin fibroblast cells (HFF); experiment: Cell proliferation assay (cytotoxicity) in HFF cells; type: cell-based; details: for Qualitative Cytotoxic Effect at 2.0 ml dose: HFF cells, solution conc. per compound (ng/ml) (Acyclovir 250); for CC50: Human foreskin fibroblast cells, reduces growth of uninfected cells by 50%
Procedure: as §2, with “Primary human foreskin fibroblast cells (HFF) obtained from Dr. E. R. Kern (Department of Pediatrics, University of Alabama Medical School, 309 Bevill Biomedical Research Building, 845 19th Street South, Birmingham, Ala., 35294-2170), were used for cytopathic effect (CPE) inhibition assay.” left out
(§5) HFF, Vero and HEp-2 cells were seeded in 24-well tissue culture plates at a concentration of […] in DMEM containing 10% FCS and incubated for 24 hours at 37° C. in the presence of 5% CO2. To the monolayer of these cells 0.5, 1.0, 1.5 and 2.0 ml of solution of antiviral compounds were added in the respective wells in duplicate and the cells were then incubated in a 5% CO2 incubator at 37° C. for 72 hours. The cells were observed daily for any change in morphology. […] At the end of this time, the media-drug solution was removed and the cells washed. One ml of 0.25% trypsin was added to each well and incubated until the cells start to come off of the plate. The cells-media mixture was then pipetted up and down several times to resuspend the cells and 0.2 ml of the cell suspension was added to 9.8 ml of trypan blue and cells were counted using hemocytometer. Each sample was counted three times with three replicate wells per sample.

HSV-1 strain F = experiment: CPE inhibition, HSV-1 strain F in HEp-2 cells; also: key: +++ = Complete cytopathic effect; ++ = Moderate cytopathic effect; + = Minimum cytopathic effect; − = No cytopathic effect; type: cell-based, herpes simplex virus type 1; details: conc. per compound (ng/ml)
Source text: as §2, §3, §4

HSV-2 strain G = experiment: CPE inhibition, HSV-2 strain G in HEp-2 cells; also: key: +++ = Complete cytopathic effect; ++ = Moderate cytopathic effect; + = Minimum cytopathic effect; − = No cytopathic effect; type: cell-based, herpes simplex virus type 2; details: conc. per compound (ng/ml)
Source text: as §2, §3, §4

[2] = test system: Human laryngeal epithelial carcinoma cells (HEp-2); experiment: Cytotoxicity in HEp-2 cells; type: cell-based; details: HEp-2 cells; conc. per compound (ng/ml)
Procedure: as §2, with “Primary human foreskin fibroblast cells (HFF) obtained from Dr. E. R. Kern (Department of Pediatrics, University of Alabama Medical School, 309 Bevill Biomedical Research Building, 845 19th Street South, Birmingham, Ala., 35294-2170), were used for cytopathic effect (CPE) inhibition assay.” left out
as §5

[3] = Cell proliferation assay (cytotoxicity) in HFF cells; type: cell-based, human; details: Human foreskin fibroblast cells, reduces growth of uninfected cells by 50%
Procedure: as §2, with “Primary human foreskin fibroblast cells (HFF) obtained from Dr. E. R. Kern (Department of Pediatrics, University of Alabama Medical School, 309 Bevill Biomedical Research Building, 845 19th Street South, Birmingham, Ala., 35294-2170), were used for cytopathic effect (CPE) inhibition assay.” left out
as §5

Human Cytomegalovirus = experiment: CPE inhibition in stationary cells (visual), HCMV in HFF cells; type: cell-based; details: test compounds in DMSO
Varicella-Zoster Virus = experiment: CPE inhibition in stationary cells (visual), VZV in HFF cells; type: cell-based; details: test compounds in DMSO
Epstein-Barr Virus = experiment: VCA expression in EBV-infected Daudi cells; details: Epstein-Barr Virus, Daudi cells, VCA; test compounds in DMSO
Source text: Raji is a Burkitt's lymphoma cell line containing 60 EBV genome/cell, and was the primary cell used for screening antiviral activity against EBV early antigen (EA) expression. […] It spontaneously expresses EBV EA in 0.25-0.5% of the cells. It was used in follow-up studies to confirm activity. These cell lines respond to superinfection by EBV by expressing EA-diffuse component EA (D), EA restricted component EA (R), and viral capsid antigen (VCA). […] The cultures were fed twice weekly and the cell concentration was adjusted to 3×10^5/ml. The cells were kept at 37° C. in humidified atmosphere with 5% CO2.
Cells were infected with the P3HR-1 strain of HBV and the test compound was added after adsorption (45 minutes at 37° C.) and washing of the cell cultures. The cultures were incubated for two days in complete medium to allow viral gene expression. Following the 48 hours of incubation, the numbers of cells of each sample was counted and smears were made. Monoclonal antibodies to the different EA components and VCA were then added to the cells and then incubated and washed. This is followed by a fluorescein conjugated rabbit anti-mouse IgG antibody, and the number of fluorescence cells in the smear were counted. The total number of cells in the cultures positive for EA or VCA were then calculated and compared.

[4] = primary human foreskin fibroblast (HFF) cells

| Compound | melting point | EC50 HSV-1 E377 (HSV-1 strain E-377; CPE inhibition in HFF cells) [µg/mL] | EC50 HSV-2 MS (HSV-2 strain MS; CPE inhibition in HFF cells) [µg/mL] | CC50 [1] [µg/mL] | Cytopathic Effect (CPE) Inhibition HSV-1 Strain F (HSV-1 strain F) | Cytopathic Effect (CPE) Inhibition HSV-2 Strain G (HSV-2 strain G) | Cell Cytotoxicity [2] | also measured |
| --- | --- | --- | --- | --- | --- | --- | --- | --- |
| Cc1ccc(S(=O)(=O)OC2CC[C@@]3(C)C(CC[C@]4(C)C3CCC3C5C6OCC5(CCC6(C)C)CC[C@]34C)C2(C)C)cc1 (stereo partly drawn) (as salt: tosylate) [Example 9, Allobetulin Tosylate] | 180 to 182.6 °C (dec.) |  |  |  |  |  |  |  |
| CC(=O)OC1CCC2(C)C(CCC3(C)C2CCC2C4C5OC(=O)C4(CCC5(C)C)CCC23C)C1(C)C (stereo not drawn) [3β-Acetoxy-19αH-19,28lactone-oleanan, Allobetulin-3-acetyl lactone (3β-Acetoxy-19αH-19,28-lactone-oleanane)] |  | 0.225 (≈ 0.451 µM) | 0.125 (≈ 0.251 µM) | 0.225 (≈ 0.451 µM) | ++ | ++ | − | Qualitative CPE at 2.0 ml dose HSV-1 E377 (HSV-1 strain E-377; HFF cells): +++; Qualitative CPE at 2.0 ml dose HSV-2 MS (HSV-2 strain MS): ++; Qualitative Cytotoxic Effect at 2.0 ml dose [1]: + |
| CC1(C)CCC23CCC4(C)C(CCC5C6(C)CCC(OC(=O)CO)C(C)(C)C6CCC54C)C2C1OC3 (stereo not drawn) [Allobetulin 3-glycolate, Allobetulin, 3-Glycolate] |  | >0.25 | 0.125 (≈ 0.25 µM) | >0.25 | +++ | ++ | − |  |
| CC1(C)CCC23CC[C@@]4(C)C(CCC5[C@@]6(C)CCC(OP(=O)(O)O)C(C)(C)C6CC[C@]54C)C2C1OC3 (stereo partly drawn) [Allobetulin 3-phosphate, Allobetulin Phosphate] |  | >0.25 | 0.25 | >0.125 | +++ | ++ | − | anti HSV-1 activity (in words) (HSV-1 strain E-377; HFF cells, HSV-1 (E377)): significant activity |
| CC1(C)CCC23CCC4(C)C(CCC5C6(C)CCC(OC(=O)c7ccccc7C(=O)O)C(C)(C)C6CCC54C)C2C1OC3 (stereo not drawn) [Allobetulin 3-phthalate, Allobetulin, 3-Phthalate] |  | >0.25 | 0.25 (≈ 0.423 µM) | >0.25 | ++ | ++ | − |  |
| CC1(C)CCC23CCC4(C)C(CCC5C6(C)CCC(OC(=O)CCC(=O)O)C(C)(C)C6CCC54C)C2C1OC3 (stereo not drawn) [Allobetulin Succinate, Allobetulin, 3-Succinate] |  | >0.25 | >0.25 | >0.25 | ++ | + | − |  |
| CC1(C)CCC23CC[C@]4(C)C(CCC5[C@@]6(C)CCC(O)C(C)(C)C6CC[C@]54C)C2C1OC3=O (stereo partly drawn) [Allobetulin lactone, Allobetulin-Lactone] |  |  |  |  | +++ | ++ | − | EC50 (HSV-1 strain E-377): > 0.125 µg/mL; EC50 (HSV-2 strain MS): 0.2 µg/mL (≈ 0.438 µM); CC50 at 72 h [3]: > 0.125 µg/mL |
| CC1(C)CCC23CC[C@]4(C)C(CCC5[C@@]6(C)C=C(O)C(=O)C(C)(C)C6CC[C@]54C)C2C1OC3 (stereo partly drawn) [Allobetulon-1,2-ene-2-ol, Allobetulon 1,2-ene-2-ol.] | 236.8 to 238.8 °C |  |  |  | ++ | ++ | − | Qualitative CPE at 2.0 ml dose HSV-1 E377 (HSV-1 strain E-377; HFF cells): +++; EC50 (HSV-1 strain E-377; CPE inhibition in HFF cells): 0.22 µg/mL (≈ 0.484 µM); Qualitative CPE at 2.0 ml dose HSV-2 MS (HSV-2 strain MS): +++; EC50 (HSV-2 strain MS; CPE inhibition in HFF cells): 0.165 µg/mL (≈ 0.363 µM); CC50 at 72 h [3, 4]: 0.22 µg/mL (≈ 0.484 µM); Qualitative Cytotoxic Effect at 2.0 ml dose [1]: − |
| CC1(C)CCC23CC[C@]4(C)C(CCC5[C@@]6(C)CCC(=O)C(C)(C)C6CC[C@]54C)C2C1OC3 (stereo partly drawn) [Allobetulon] |  |  |  |  | ++ | ++ | − | Qualitative CPE at 2.0 ml dose HSV-1 E377 (HSV-1 strain E-377; HFF cells): +++; EC50 (HSV-1 strain E-377; CPE inhibition in HFF cells): 0.3 µg/mL (≈ 0.681 µM); Qualitative CPE at 2.0 ml dose HSV-2 MS (HSV-2 strain MS): +++; EC50 (HSV-2 strain MS; CPE inhibition in HFF cells): 0.3 µg/mL (≈ 0.681 µM); CC50 at 72 h [3, 4]: 0.3 µg/mL (≈ 0.681 µM); Qualitative Cytotoxic Effect at 2.0 ml dose [1]: − |
| CC1(C)CCC23CC[C@]4(C)C(CCC5[C@@]6(C)CCC(=O)C(C)(C)C6CC[C@]54C)C2C1OC3=O (stereo partly drawn) [Example 10, Allobetulon Lactone] | 333.7 to 335.9 °C (dec.) |  |  |  |  |  |  |  |
| CC1(C)CCC23CC[C@]4(C)C(CCC5[C@@]6(C)CC(Br)C(=O)C(C)(C)C6CC[C@]54C)C2C1OC3=O (stereo partly drawn) [Example 12, 2-Br-Allobetulonlacton] | 338 to 342.8 °C (dec.) |  |  |  |  |  |  |  |
| CC1(C)CCC23CC[C@]4(C)C(CCC5[C@@]6(C)C=C(O)C(=O)C(C)(C)C6CC[C@]54C)C2C1OC3=O (stereo partly drawn) [Example 13, Allobetulonlacton 1-ene-2-ol] | 238.8 to 243.6 °C (dec.) |  |  |  |  |  |  |  |
| Allobetulin ethanolamine |  | >0.25 | >0.25 | 0.2 |  |  |  |  |
| Allobetulin ethanolamine chlorohydrate |  | 0.125 | 0.125 | 0.125 |  |  |  |  |
| Betulin glycerol oxalate |  |  |  |  |  |  |  | EC50 (Human Cytomegalovirus): >0.1 µg/mL; EC50 (Varicella-Zoster Virus): >0.02 µg/mL; EC50 (Epstein-Barr Virus): 0.0072 µg/mL |
